Experiments:
[1] = biological target: T1, G-protein coupled receptor 35 (Homo sapiens, UniProt Q9HC97); test: biochemical; type: cell-based, CHO
Description: Displacement of [3H]PSB-13253 from human recombinant GPR35 exprssed in CHO cells by liquid scintillation counting analysis

[2] = biological target: T1, G-protein coupled receptor 35; test: Agonist activity at human GPR35 by Ca+2 release assay
[3] = biological target: T1, G-protein coupled receptor 35; test: Agonist activity at human GPR35 by DMR assay
[4] = biological target: T1, G-protein coupled receptor 35; test: Agonist activity at C-terminal beta-galactosidase tagged human recombinant GPR35 expressed in CHO cells at 100 uM after 90 mins by beta-arrestin recruitment assay relative to zaprinast; type: cell-based
[5] = biological target: T1, G-protein coupled receptor 35; test: Agonist activity at human GPR35 expressed in HEK293T cells at 5 uM by EYPF-based beta-arrestin-2 luciferase reporter gene assay; type: cell-based, HEK-293T
[6] = biological target: T1, G-protein coupled receptor 35; test: Agonist activity at C-terminal beta-galactosidase tagged human recombinant GPR35 expressed in CHO cells after 90 mins by beta-arrestin recruitment assay; type: cell-based
[7] = biological target: T1, G-protein coupled receptor 35; test: Displacement of [3H]PSB-13253 from human recombinant GPR35 exprssed in CHO cells at 10 uM by liquid scintillation counting analysis; type: cell-based
[8] = biological target: T1, G-protein coupled receptor 35; test: Binding affinity to human recombinant GPR35 expressed in CHO cells after 150 mins by liquid scintillation counting analysis
[9] = biological target: T1, G-protein coupled receptor 35; test: Competitive binding affinity to human recombinant GPR35 expressed in CHO cells by scintillation counting analysis in presence of CaCl2; type: cell-based
[10] = biological target: T1, G-protein coupled receptor 35; test: Competitive binding affinity to human recombinant GPR35 expressed in CHO cells by scintillation counting analysis in presence of MgCl2; type: cell-based
[11] = biological target: T1, G-protein coupled receptor 35; test: Binding affinity to human recombinant GPR35 expressed in CHO cells by scintillation counting analysis in absence of MgCl2, NaCl, CaCl2; type: cell-based
[12] = biological target: T1, G-protein coupled receptor 35; details: CHO, 5 nM
[13] = biological target: T1, G-protein coupled receptor 35; details: CHO, 5 nM; remark: listed apart in the source
[14] = biological target: T1, G-protein coupled receptor 35; details: CHO, 5 nM; remark: listed apart in the source
[15] = biological target: T1, G-protein coupled receptor 35; details: CHO, 5 nM; remark: listed apart in the source
[16] = biological target: T1, G-protein coupled receptor 35; details: CHO, 5 nM; remark: listed apart in the source
[17] = biological target: T1, G-protein coupled receptor 35; test: Antagonist activity at human GPR35 expressed in human HT29 cells after 1 hr by DMR assay; type: cell-based; details: ht-29
[18] = biological target: T1, G-protein coupled receptor 35; test: Antagonist activity at human Gal4-VP16 fused GPR35 expressed in human U2OS cells assessed as beta arrestin translocation by reporter gene assay; type: cell-based
[19] = biological target: T1, G-protein coupled receptor 35; test: Antagonist activity at C-terminal beta-galactosidase tagged human recombinant GPR35 expressed in CHO cells after 90 mins by beta-arrestin recruitment assay; type: cell-based
[20] = biological target: T1, G-protein coupled receptor 35; test: Agonist activity at human GPR35 expressed in CHO cells assessed as increase in intracellular Ca2+ measured over 20 secs by Aequorin assay; type: functional, cell-based

T1 sequence (Q9HC97 whole entry): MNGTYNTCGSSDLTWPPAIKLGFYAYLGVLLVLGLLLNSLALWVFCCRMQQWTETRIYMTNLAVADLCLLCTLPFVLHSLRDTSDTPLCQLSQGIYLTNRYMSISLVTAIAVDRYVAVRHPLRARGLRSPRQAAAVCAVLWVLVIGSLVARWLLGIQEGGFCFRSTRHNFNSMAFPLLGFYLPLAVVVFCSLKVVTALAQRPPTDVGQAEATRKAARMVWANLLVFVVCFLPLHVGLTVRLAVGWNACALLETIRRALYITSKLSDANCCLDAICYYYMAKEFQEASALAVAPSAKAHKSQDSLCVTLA

SMILES | Ki [1] [nM] | further results
O=C(O)c1cc(=O)c2c(OCC(O)COc3cccc4oc(C(=O)O)cc(=O)c34)cccc2o1 [CROMOLYN] | 2340 | EC50 [2]: 210 nM; EC50 [3]: 520 nM; Emax [4]: 119%
O=C(Nc1cccc2c(=O)cc(C(=O)O)oc12)c1ccccc1 | 3290 | –
CC1=C(C#N)C(=C(C#N)C#N)OC1(C)c1ccc(Cl)c(Cl)c1 (stereo unspecified) | 655 | –
Cc1ccc(C(=O)Nc2cccc3c(=O)cc(C(=O)O)oc23)cc1 | 697 | –
NS(=O)(=O)c1cc(C(=O)O)c(NCc2ccco2)cc1Cl | – | Emax [4]: 96%
Nc1cc(Br)cc2c(=O)cc(C(=O)O)oc12 | 3010 | –
COC(=O)CC(=O)Nc1cccc2c(=O)cc(C(=O)O)oc12 | 18600 | –
COc1ccc(C(=O)Nc2cc(Br)cc3c(=O)cc(C(=O)O)oc23)cc1OC | 228 | –
Nc1cccc2c(=O)cc(C(=O)O)oc12 | – | inhibition [7]: 7%
CCOC(=O)c1cc(=O)c2cc(F)cc(NC(=O)c3ccc(OC)cc3)c2o1 | 198 | –
CCC(=O)Nc1cccc2c(=O)cc(C(=O)O)oc12 | 6770 | –
COc1ccc(C(=O)Nc2cccc3c(=O)cc(C(=O)O)oc23)cc1 | 221 | –
O=C(Nc1cccc2c(=O)cc(C(=O)O)oc12)c1ccc2ccccc2n1 | 691 | –
[3H]C([3H])([3H])Oc1ccc(C(=O)Nc2cc(Br)cc3c(=O)cc(C(=O)O)oc23)cc1 | – | Kd [8]: 5.27 nM; Kd [9]: 5.92 nM; Kd [10]: 5.65 nM; Kd [11]: 115 nM
O=C(Nc1cccc2c(=O)cc(C(=O)O)oc12)c1ccc(Br)cc1 | 233 | –
N#Cc1ccc(C(=O)Nc2cc(Br)cc3c(=O)cc(C(=O)O)oc23)cc1 | 148 | –
O=C(Nc1cc(Cl)cc2c(=O)cc(C(=O)O)oc12)c1ccc([N+](=O)[O-])cc1 | 183 | –

SMILES | Ki [1] [nM] | further results
O=C(Nc1cccc2c(=O)cc(C(=O)O)oc12)c1ccc(OCC2CC2)cc1 | 3710 | –
O=C(Nc1cccc2c(=O)cc(C(=O)O)oc12)c1cccc([N+](=O)[O-])c1 | 4390 | –
CC(=O)Nc1cccc2c(=O)cc(C(=O)O)oc12 | 18500 | –
CCCOc1ccc(C(=O)Nc2cccc3c(=O)cc(C(=O)O)oc23)cc1 | 8060 | –
O=C(Nc1cccc2c(=O)cc(C(=O)O)oc12)c1ccc(C(F)(F)F)cc1 | 10300 | –
O=C(O)c1cc(=O)c2cccc([N+](=O)[O-])c2o1 | 13600 | –
O=C(Nc1cc(Cl)cc2c(=O)cc(C(=O)O)oc12)c1ccccc1 | 138 | –
O=C(O)c1cc(=O)c2ccccc2[nH]1 [TRANSTORINE] | 137000 | EC50 [20]: 39200 nM
Cc1cccc(C(=O)Nc2cc(Cl)cc3c(=O)cc(C(=O)O)oc23)c1 | 250 | –
O=C(Nc1cccc2c(=O)cc(C(=O)O)oc12)c1ccc2ccccc2c1 | 714 | –
O=C(O)c1cc2ccccc2c(Cc2c(O)c(C(=O)O)cc3ccccc23)c1O | – | Emax [4]: 95%
Cc1cccc(C(=O)Nc2cc(Br)cc3c(=O)cc(C(=O)O)oc23)c1 | 128 | –
Cc1cccc(C(=O)Nc2cccc3c(=O)cc(C(=O)O)oc23)c1 | 4780 | –
O=C(O)c1cc(=O)c2cccc(NC(=O)C3CCCCC3)c2o1 | 3580 | –
O=C(Cc1ccccc1)Nc1cccc2c(=O)cc(C(=O)O)oc12 | 2720 | –
COc1ccccc1C(=O)Nc1cc(Br)cc2c(=O)cc(C(=O)O)oc12 | 331 | –

The next lines start with results.

Ki [1] [nM] | SMILES | further results
5.5 | COc1ccc(C(=O)Nc2cc(Cl)cc3c(=O)cc(C(=O)O)oc23)cc1 | –
11.5 | O=C(Nc1cc(F)cc2c(=O)cc(C(=O)O)oc12)c1ccc(Cl)c(Cl)c1 | –
39 | O=c1oc2ccccc2c(O)c1Cc1c(O)c2ccccc2oc1=O [DICUMAROL] | EC50 [5]: 1300 nM; Emax [4]: 107%; EC50 [6]: 9780 nM
81.6 | O=C(Nc1cc(Br)cc2c(=O)cc(C(=O)O)oc12)c1ccccc1 | –
119 | O=C(O)c1cc(=O)c2cc(F)cc(NC(=O)c3cccc(Cl)c3Cl)c2o1 | –
15 | O=C(Nc1cc(Br)cc2c(=O)cc(C(=O)O)oc12)c1ccc2c(c1)OCO2 | –
0.589 | COc1cc(F)c(C(=O)Nc2cc(Br)cc3c(=O)cc(C(=O)O)oc23)c(F)c1 | Emax [4]: 119%; EC50 [6]: 5.54 nM
0.938 | O=C(O)c1cc(=O)c2cc(Br)cc(NC(=O)c3ccc(Cl)cc3Cl)c2o1 | –
4.12 | O=C(O)c1cc(=O)c2cc(F)cc(NC(=O)c3ccc(Cl)cc3Cl)c2o1 | –
25.4 | COc1ccc(C(=O)Nc2cc(F)cc3c(=O)cc(C(=O)O)oc23)cc1 | –
56.8 | COc1ccc(C(=O)Nc2cc(Br)cc3c(=O)cc(C(=O)O)oc23)nc1 | –
25.7 | COc1ccc(C(=O)Nc2cc(Br)cc3c(=O)cc(C(=O)O)oc23)cn1 | –
5.18 | COc1ccc(C(=O)Nc2cc(Br)cc3c(=O)cc(C(=O)O)oc23)cc1 | inhibition [12]: 85%; inhibition [13]: 90%; inhibition [14]: 65%; T1/2 [15]: 7.8 min; T1/2 [16]: 9.91 min
2.18 | O=C(Nc1cc(Br)cc2c(=O)cc(C(=O)O)oc12)c1ccc(Cl)c(Cl)c1 | EC50 [6]: 25.1 nM
1.12 | COc1ccc(C(=O)Nc2cc(Br)cc3c(=O)cc(C(=O)O)oc23)c(Cl)c1 | –
1.64 | COc1ccc(C(=O)Nc2cc(Br)cc3c(=O)cc(C(=O)O)oc23)cc1F | Emax [4]: 120%; EC50 [6]: 4.37 nM
42.8 | COc1ccc(C(=O)Nc2cc(C)cc3c(=O)cc(C(=O)O)oc23)cc1 | Emax [4]: 118%; EC50 [6]: 37.7 nM
20.5 | COc1ccc(C(=O)Nc2cc(OC)cc3c(=O)cc(C(=O)O)oc23)cc1 | Emax [4]: 124%; EC50 [6]: 25.5 nM
42.2 | COC(=O)c1cnn(-c2ccc(F)cc2F)c1/C=N/NC(=S)NC(C)(C)C | IC50 [17]: 10400 nM; IC50 [18]: 200 nM; IC50 [19]: 574 nM
1.92 | COc1ccc(C(=O)Nc2cc(Cl)cc3c(=O)cc(C(=O)O)oc23)c(F)c1 | Emax [4]: 111%; EC50 [6]: 6.06 nM
1.37 | COc1ccc(C(=O)Nc2cc(Br)cc3c(=O)cc(C(=O)O)oc23)c(F)c1 | Emax [4]: 120%; EC50 [6]: 4.45 nM
98.4 | CCOc1ccc(C(=O)Nc2cc(Br)cc3c(=O)cc(C(=O)O)oc23)cc1 | –
50.8 | O=C(O)COc1ccc(/C=C2\SC(=O)NC2=O)cc1 | EC50 [5]: 1400 nM; Emax [4]: 107%; EC50 [6]: 349 nM
4.79 | O=C(Nc1cc(Br)cc2c(=O)cc(C(=O)O)oc12)c1ccc(Cl)cc1 | –
